From PubChem BioAssay (NCI)
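Cells were grown in 96-well plates and exposed to each compound for 48 hours at five concentrations; endpoints were interpolated linearly between bracketing concentrations, or set to the highest concentration if not reached. GI50: concentration for 50% inhibition of growth. At the TGI there is no net growth.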

test system: COLO 205 colon; assay: inhibition of tumour cell growth, NCI panel, 48 h

| Compound | TGI [µM] | GI50 [µM] |
| --- | --- | --- |
| O=C(O)C1C(Br)(c2ccccc2)C1(Br)c1ccccc1 (stereo unspecified) | 37.8 | – |
| COc1ccc(CCN2COc3c([C@@H](C)CCC=C(C)C)ccc(C)c3C2)cc1OC | 3.19 | 1.79 |
| O=C1OC2CCCC[C@@H]2C2C[C@]34CCCCC3[C@@H](C(=O)O4)C12 (stereo partly specified) | > 100 | – |
| CN(C)c1cc[c]([Sn]([c]2ccc(N(C)C)cc2)([c]2ccc(N(C)C)cc2)[c]2ccc(N(C)C)cc2)cc1 | 17.7 | 4.19 |
| COc1cc(/C=C/c2cc(/C=C/c3ccc(O)c(OC)c3)n(C(=O)Nc3ccc(C)cc3C)n2)ccc1O | 3.38 | 1.9 |
| CCCSc1nc(COC(=O)NC)c(COC(=O)NC)n1C | > 100 | – |
| O=C1CCC(O)=C1N=Nc1ccccc1 | > 100 | – |
| CCN(CC)c1ccc(N=Nc2ccc(-c3nc4ccc[n+](C)c4s3)cc2)cc1 | 11.4 | – |
| NC(=O)NCc1c(C(N)=O)ncn1Cc1ccccc1 | > 100 | – |
| O=C1CSC(/C(=N/Nc2ccccc2)c2nc3ccccc3[nH]2)=N1 | > 100 | – |
| CN(C)CCN1C(=O)c2ccc3c4c(ccc(c24)C1=O)C(=O)N(CCN=C=S)C3=O | 0.0922 | 0.0254 |
| O=C(c1ccccc1)C1OC12C(=O)Nc1ccccc12 (stereo unspecified) | 34.5 | – |
| COc1ccc2nc(NC(=O)C(=O)C(C#N)c3ccc([N+](=O)[O-])cc3)sc2c1 (stereo unspecified) | > 100 | – |
| O=C(O)[C@H](NS(=O)(=O)c1ccc([N+](=O)[O-])cc1)c1ccccc1 | > 100 | – |
| CC(C)C[C@H](NC(=O)/C=C/Cn1ccc2ccccc2c1=O)B(O)O | > 100 | 5.93 |
| S=C1OC2CCCC[C@H]2O1 (stereo partly specified) | > 100 | – |
| O=C1/C(=C/c2cccc([N+](=O)[O-])c2)COc2ccc(Br)cc21 | > 100 | – |

| Compound | TGI [µM] | GI50 [µM] |
| --- | --- | --- |
| COc1cccc2c(=O)c3c(sc12)c(N1CCNCC1)nc1ccccc13 | 4.72 | 2.07 |
| COc1c(CCl)cc(-c2cc(=O)c3ccccc3s2)cc1CCl | > 100 | – |
| CSC(C1c2ccccc2N(c2ccc(C)cc2)c2[nH]c(=O)n(C)c(=O)c21)S(=O)(=O)c1ccc(C)cc1 (stereo unspecified) | > 100 | – |
| CCOC(=O)NC(=O)c1cn(CCCOC(=O)CCCCCCCCCCC(=O)OCCCn2cc(C(=O)NC(=O)OCC)c(=O)[nH]c2=O)c(=O)[nH]c1=O | > 100 | – |
| COc1cc(/C=C(\C#N)c2ccccc2)cc(OC)c1 | > 100 | – |
| N#Cc1cccnc1Cl | > 100 | – |
| O=C1CC2c3ccccc3CCC2c2ccccc21 (stereo unspecified) | 11.2 | – |
| CCCCCCCCCCCC(=O)OCC1OC(OC)C(NC(=O)N(CCCl)N=O)C(O)C1O (stereo unspecified) | 59 | – |
| C=CC/C=C/C/C=C/CCCCCCCc1cccc(O)c1C(=O)O | > 100 | – |
| COc1ccc(OC)c2c(C(=O)O)c(Cc3ccccc3)ccc12 | > 100 | – |
| O=C(Nc1c(Cl)cc([N+](=O)[O-])cc1Cl)C(=O)C(C1OC(=O)c2ccccc21)[N+](=O)[O-] (stereo unspecified) | > 100 | – |
| Cc1c(C(=O)/C=C/c2ccccc2)[n+](=O)c2ccccc2n1[O-] | 29.8 | – |
| N#CC1CC2(C1)OCCS2 (stereo unspecified) | > 100 | – |
| COc1cc(NC(C)CCCN)c2nccc(C)c2c1 (stereo unspecified) | 28.4 | – |
| C1C[OH+]CC[OH+]CC[OH+]CC[OH+]CC[OH+]1.[Cl-].[V] | > 100 | > 100 |
| CC(=O)C(=CN1CCN(C(=O)c2ccco2)C1=S)C(C)=O | 54.9 | 23.4 |
| c1ccc(C2Nc3ccccc3C3OCCCC23)cc1 (stereo unspecified) | > 100 | – |

test system: SK-MEL-2 melanoma; assay: inhibition of tumour cell growth, NCI panel, 48 h

| Compound | TGI [µM] | GI50 [µM] |
| --- | --- | --- |
| O=C1[C@@H]2C(c3ccccc3F)=NO[C@@H]2C(=O)N1c1ccc(Cc2ccc(N3C(=O)[C@H]4C(c5ccccc5F)=NO[C@H]4C3=O)cc2)cc1 | > 100 | – |
| C=CCc1ccc(Oc2cc(CC=C)c3c(c2O)O[C@@H](CO)[C@H]3c2ccc(O)c(-c3cc(CC=C)ccc3O)c2)cc1 | 65.7 | – |
| Cn1c2ccccc2c(=O)c2ccc(Cl)cc21 | > 10 | – |
| O=C(NCO)NCOCn1c(=O)n(CO)c(=O)n(CO)c1=O | 33.8 | – |
| Clc1ccc2c(c1)-c1c3c(nn1-c1ccccc1)-c1ccccc1SC3O2 (stereo unspecified) | > 100 | – |
| O=C(O)C1C(Br)(c2ccccc2)C1(Br)c1ccccc1 (stereo unspecified) | 80.2 | – |
| COc1ccc(CCN2COc3c([C@@H](C)CCC=C(C)C)ccc(C)c3C2)cc1OC | 3.82 | 1.88 |
| O=C1OC2CCCC[C@@H]2C2C[C@]34CCCCC3[C@@H](C(=O)O4)C12 (stereo partly specified) | > 100 | – |
| CN(C)c1cc[c]([Sn]([c]2ccc(N(C)C)cc2)([c]2ccc(N(C)C)cc2)[c]2ccc(N(C)C)cc2)cc1 | 29.3 | 6.83 |
| CCCSc1nc(COC(=O)NC)c(COC(=O)NC)n1C | > 100 | – |
| O=C1CCC(O)=C1N=Nc1ccccc1 | > 100 | – |
| CCN(CC)c1ccc(N=Nc2ccc(-c3nc4ccc[n+](C)c4s3)cc2)cc1 | 25.5 | – |
| O=C1CSC(/C(=N/Nc2ccccc2)c2nc3ccccc3[nH]2)=N1 | > 100 | – |
| C1CCC([PH+](C2CCCCC2)C2CCCCC2[PH+](C2CCCCC2)C2CCCCC2)CC1.O=C(C1[CH-]CCCC1)C1CCCC[N-]1.[Au] (stereo unspecified) | 2.02 | 0.379 |
| CN(C)CCN1C(=O)c2ccc3c4c(ccc(c24)C1=O)C(=O)N(CCN=C=S)C3=O | 0.225 | 0.0563 |
| O=C(c1ccccc1)C1OC12C(=O)Nc1ccccc12 (stereo unspecified) | > 100 | – |
| COc1ccc2nc(NC(=O)C(=O)C(C#N)c3ccc([N+](=O)[O-])cc3)sc2c1 (stereo unspecified) | > 100 | – |
| O=C(O)[C@H](NS(=O)(=O)c1ccc([N+](=O)[O-])cc1)c1ccccc1 | > 100 | – |
| CC(C)C[C@H](NC(=O)/C=C/Cn1ccc2ccccc2c1=O)B(O)O | 23.5 | 3.12 |

| Compound | TGI [µM] | GI50 [µM] |
| --- | --- | --- |
| S=C1OC2CCCC[C@H]2O1 (stereo partly specified) | > 100 | – |
| O=C1/C(=C/c2cccc([N+](=O)[O-])c2)COc2ccc(Br)cc21 | > 100 | – |
| COc1cccc2c(=O)c3c(sc12)c(N1CCNCC1)nc1ccccc13 | 3.88 | 1.94 |
| COc1c(CCl)cc(-c2cc(=O)c3ccccc3s2)cc1CCl | > 100 | – |
| CSC(C1c2ccccc2N(c2ccc(C)cc2)c2[nH]c(=O)n(C)c(=O)c21)S(=O)(=O)c1ccc(C)cc1 (stereo unspecified) | > 100 | – |
| CCOC(=O)NC(=O)c1cn(CCCOC(=O)CCCCCCCCCCC(=O)OCCCn2cc(C(=O)NC(=O)OCC)c(=O)[nH]c2=O)c(=O)[nH]c1=O | > 100 | – |
| COc1cc(/C=C(\C#N)c2ccccc2)cc(OC)c1 | > 100 | – |
| N#Cc1cccnc1Cl | > 100 | – |
| O=C1CC2c3ccccc3CCC2c2ccccc21 (stereo unspecified) | 35.9 | – |
| CCCCCCCCCCCC(=O)OCC1OC(OC)C(NC(=O)N(CCCl)N=O)C(O)C1O (stereo unspecified) | 54.5 | – |
| C=CC/C=C/C/C=C/CCCCCCCc1cccc(O)c1C(=O)O | > 100 | – |
| COc1ccc(OC)c2c(C(=O)O)c(Cc3ccccc3)ccc12 | > 100 | – |
| O=C(Nc1c(Cl)cc([N+](=O)[O-])cc1Cl)C(=O)C(C1OC(=O)c2ccccc21)[N+](=O)[O-] (stereo unspecified) | > 100 | – |
| N#CC1CC2(C1)OCCS2 (stereo unspecified) | > 100 | – |
| COc1cc(NC(C)CCCN)c2nccc(C)c2c1 (stereo unspecified) | 37.9 | – |
| C1C[OH+]CC[OH+]CC[OH+]CC[OH+]CC[OH+]1.[Cl-].[V] | > 100 | 48.2 |
| CC(=O)C(=CN1CCN(C(=O)c2ccco2)C1=S)C(C)=O | 8.52 | 3.34 |
| c1ccc(C2Nc3ccccc3C3OCCCC23)cc1 (stereo unspecified) | 82.2 | – |

test system: SK-MEL-5 melanoma; assay: inhibition of tumour cell growth, NCI panel, 48 h

| Compound | TGI [µM] | GI50 [µM] |
| --- | --- | --- |
| O=C1[C@@H]2C(c3ccccc3F)=NO[C@@H]2C(=O)N1c1ccc(Cc2ccc(N3C(=O)[C@H]4C(c5ccccc5F)=NO[C@H]4C3=O)cc2)cc1 | > 100 | – |
| C=CCc1ccc(Oc2cc(CC=C)c3c(c2O)O[C@@H](CO)[C@H]3c2ccc(O)c(-c3cc(CC=C)ccc3O)c2)cc1 | > 100 | – |
| Cn1c2ccccc2c(=O)c2ccc(Cl)cc21 | > 10 | – |
| O=C(NCO)NCOCn1c(=O)n(CO)c(=O)n(CO)c1=O | > 83 | – |
| Clc1ccc2c(c1)-c1c3c(nn1-c1ccccc1)-c1ccccc1SC3O2 (stereo unspecified) | > 100 | – |
| O=C(O)C1C(Br)(c2ccccc2)C1(Br)c1ccccc1 (stereo unspecified) | 88.8 | – |
| COc1ccc(CCN2COc3c([C@@H](C)CCC=C(C)C)ccc(C)c3C2)cc1OC | 3.04 | 1.64 |
| O=C1OC2CCCC[C@@H]2C2C[C@]34CCCCC3[C@@H](C(=O)O4)C12 (stereo partly specified) | > 100 | – |
| CN(C)c1cc[c]([Sn]([c]2ccc(N(C)C)cc2)([c]2ccc(N(C)C)cc2)[c]2ccc(N(C)C)cc2)cc1 | 14.2 | 2.85 |
| COc1cc(/C=C/c2cc(/C=C/c3ccc(O)c(OC)c3)n(C(=O)Nc3ccc(C)cc3C)n2)ccc1O | 1.26 | 0.327 |
| CCCSc1nc(COC(=O)NC)c(COC(=O)NC)n1C | > 100 | – |
